Results: patent US4241069A, “3-Methylene flavanones and 3-methylene chromanones” (Miles Laboratories, Inc., priority 1979, dated 1980)
In brackets after ≈: the same amount, converted by molar mass.

Tests used:
S. aureus NRRL B2747 = assay: MIC, agar incorporation method; assay type: cell-based, Staphylococcus aureus; conditions: Staphylococcus aureus, NRRLB2747, 32° C., 24 hours, read-out: Minimal Inhibitory Concentration
Method: (§1) The compounds of the present invention were tested for their ability to inhibit the growth of microorganisms by in vitro tests. Generally the in vitro tests involve growing representative microorganisms under conditions favorable to such growth and measuring the effectiveness of one or more compounds in inhibiting or destroying the growth of the microorganisms. The microorganisms used include representative bacteria, fungi and yeasts.
(§2) A representative selection of the test microorganisms were cultured in a nutrient broth, such as, for example, Eugon, commercially available from Difco Laboratories, Detroit, Michigan. Bacteria and Candida species were cultured for 24 hours at 32°-37° C. and fungi were cultured for approximately one week at 32° C. Inocula were prepared by suspending the growth or spores from a slant culture in sufficient sterile normal (0.9 percent) saline or Eugon broth, to yield cell or spore concentrations of 1,000,000 cells per milliliter. Anaerobic bacteria were cultured for 48-72 hours at 32°-37° C. in a thioglycollate containing medium, for example, Fluid Thioglycollate medium or NIH thioglycollate broth, commercially available from Difco Laboratories.
(§3) The compounds of the present invention were tested for activity against bacteria, yeasts and fungi by the agar incorporation method described below. MA 1347, 3-(dimethylaminomethyl)flavanone (disclosed in U.S. Pat. No. 3,753,985) was used as a comparative standard along with controls for each solvent system used.
(§4) A series of agar plates containing two-fold dilutions of each compound to be tested, ranging in concentration from 100 to 3.1 mcg/ml of agar medium was prepared. Aliquots of each concentration (100, 50, 25, 12.5, 6.2, and 3.1) prepared in N,N-dimethylformamide or 50 percent aqueous DMF were added to liquid Eugon agar at 48° C. (one part test solution to 100 parts agar). In some cases, tests with further dilutions to 0.125 mcg/ml were conducted. The agar medium, containing the 3-methylene flavanone or chromanone compound to be tested, was then dispensed into petri dishes and allowed to solidify. The solidified plates were kept overnight at room temperatures to dry the surface of the agar.
(§5) The agar plates were then inoculated with a drop of the standardized cell or spore suspension. Inoculated plates were incubated at 32° C. The inhibition end-point or minimum inhibitory concentration (MIC) shown in Table D represent the lowest concentration of test compound which inhibited the growth of the microorganism. Visual determination of growth inhibition was used. Bacteria and yeast end-points were determined after 24 hours incubation; molds, dermatophytes and anaerobes after 48-72 hours incubation. MIC values shown as ranges represent the extremes found in repeat assays. Virtually all such values were written plus or minus one dilution, the accepted variation of a two-fold dilution assay.

C. albicans NRRL Y-477 = assay: MIC, agar incorporation method; assay type: cell-based; conditions: Candida albicans, NRRLY477, 32° C., 24 hours, read-out: Minimal Inhibitory Concentration
Method: as §1, §2, §3, §4, §5

A. fumigatus NRRL 165 = assay: MIC, agar incorporation method; assay type: cell-based; conditions: Aspergillus fumigatus, NRRL165, 32° C., 48-72 hours, read-out: Minimal Inhibitory Concentration
Method: as §1, §2, §3, §4, §5

[1] = tested on: Sarcina subflava ATCC 7468; assay: MIC, agar incorporation method; assay type: cell-based; conditions: ATCC7468, 32° C., 24 hours, read-out: Minimal Inhibitory Concentration
Method: as §1, §2, §3, §4, §5

T. mentagrophytes CDC = assay: MIC, agar incorporation method; assay type: cell-based; conditions: Trichophyton mentagrophytes, 32° C., 48-72 hours, read-out: Minimal Inhibitory Concentration
Method: as §1, §2, §3, §4, §5

[2] = tested on: Staphylococcus aureus ATCC 6538; assay: MIC, agar incorporation method; assay type: cell-based; conditions: Staphylococcus aureus, ATCC6538; S. aureus ATCC 6538; 32° C., 24 hours; read-out: Minimal Inhibitory Concentration
Method: as §1, §2, §3, §4, §5

T. rubrum ATCC 10218 = assay: MIC, agar incorporation method; assay type: cell-based; conditions: Trichophyton rubrum, ATCC10218; 32° C., 48-72 hours; read-out: Minimal Inhibitory Concentration
Method: as §1, §2, §3, §4, §5

C. guillermondii VM 42 = assay: MIC, agar incorporation method; assay type: cell-based; conditions: 32° C., 24 hours; read-out: Minimal Inhibitory Concentration
Method: as §1, §2, §3, §4, §5

[3] = tested on: Aspergillus niger ATCC 16404; assay: MIC, agar incorporation method; assay type: cell-based; conditions: ATCC16404, 32° C., 48-72 hours, read-out: Minimal Inhibitory Concentration
Method: as §1, §2, §3, §4, §5

A. fumigatus NRRL 163 = assay: MIC, agar incorporation method; assay type: cell-based; conditions: Aspergillus fumigatus, NRRL163, NRRL 163; 32° C., 48-72 hours; read-out: Minimal Inhibitory Concentration
Method: as §1, §2, §3, §4, §5

[4] = tested on: Candida albicans ATCC 10231; assay: MIC, agar incorporation method; assay type: cell-based; conditions: ATCC10231, C. albicans ATCC 10231, 32° C., 24 hours, read-out: Minimal Inhibitory Concentration
Method: as §1, §2, §3, §4, §5

[5] = tested on: Pseudomonas aeruginosa ATCC 14502; assay: MIC, agar incorporation method; assay type: cell-based; conditions: ATCC14502, 32° C., 24 hours, read-out: Minimal Inhibitory Concentration
Method: as §1, §2, §3, §4, §5

T. mentagrophytes TM-2 = assay: MIC, agar incorporation method; assay type: cell-based; conditions: Trichophyton mentagrophytes, TM2, 32° C., 48-72 hours, read-out: Minimal Inhibitory Concentration
Method: as §1, §2, §3, §4, §5

[6] = tested on: Escherichia coli ATCC 8739; assay: MIC, agar incorporation method; assay type: cell-based; conditions: ATCC8739, 32° C., 24 hours, read-out: Minimal Inhibitory Concentration
Method: as §1, §2, §3, §4, §5

[7] = tested on: Proteus vulgaris NRRL B123; assay: MIC, agar incorporation method; assay type: cell-based; conditions: NRRLB123, 32° C., 24 hours, read-out: Minimal Inhibitory Concentration
Method: as §1, §2, §3, §4, §5

C. tropicalis NRRL Y1410 = assay: MIC, agar incorporation method; assay type: cell-based; conditions: Candida tropicalis, NRRLY1410; 32° C., 24 hours; read-out: Minimal Inhibitory Concentration
Method: as §1, §2, §3, §4, §5

[8] = tested on: Trichophyton mentagrophytes ATCC 4807; assay: MIC, agar incorporation method; assay type: cell-based; conditions: ATCC4807, 32° C., 48-72 hours, read-out: Minimal Inhibitory Concentration
Method: as §1, §2, §3, §4, §5

C. krusei VM 29B = assay: MIC, agar incorporation method; assay type: cell-based; conditions: Pichia kudriavzevii, VM29B; 32° C., 24 hours; read-out: Minimal Inhibitory Concentration
Method: as §1, §2, §3, §4, §5

[9] = tested on: Microsporum gypseum ATCC 14683; assay: MIC, agar incorporation method; assay type: cell-based; conditions: Nannizzia gypsea, ATCC14683, 32° C., 48-72 hours; read-out: Minimal Inhibitory Concentration
Method: as §1, §2, §3, §4, §5

[10] = tested on: Streptococcus faecalis ATCC 10541; assay: MIC, agar incorporation method; assay type: cell-based; conditions: Enterococcus faecalis, ATCC10541; 32° C., 24 hours; read-out: Minimal Inhibitory Concentration
Method: as §1, §2, §3, §4, §5

[11] = tested on: Clostridium acetobutylicum ATCC 824; assay: MIC, agar incorporation method, anaerobic; assay type: cell-based; conditions: ATCC824, 48 h, 48 hours at 35° C., GasPak Anaerobic Jar, read-out: Minimal Inhibitory Concentration
Method: as §1, §2, §3, §4, §5
(§6) *Anaerobic: 48 hours incubation at 35° C. GasPak Anaerobic Jar

[12] = tested on: Propionobacterium acnes ATCC 6919; assay: MIC, agar incorporation method, anaerobic; assay type: cell-based; conditions: 48 hours at 35° C., GasPak Anaerobic Jar, read-out: Minimal Inhibitory Concentration
Method: as §1, §2, §3, §4, §5, §6

## C=C1C(=O)c2ccccc2OC1c1ccc(C)cc1 (stereo not shown) [Ex. 13, 4'-methyl-3-methylene flavanone]
S. aureus NRRL B2747
  MIC: 6.2 µg/mL (≈ 24.8 µM)
C. albicans NRRL Y-477
  MIC: 25 µg/mL (≈ 99.9 µM)
A. fumigatus NRRL 165
  MIC: 50 µg/mL (≈ 200 µM)
[1]
  MIC: 12.5 µg/mL (≈ 49.9 µM)
T. mentagrophytes CDC
  MIC: 6.2 µg/mL (≈ 24.8 µM)
[2]
  MIC: 6.2 µg/mL (≈ 24.8 µM)
T. rubrum ATCC 10218
  MIC: ≤ 3.1 µg/mL
C. guillermondii VM 42
  MIC: 50 µg/mL (≈ 200 µM)
[3]
  MIC: 50 µg/mL (≈ 200 µM)
A. fumigatus NRRL 163
  MIC: 12.5 µg/mL (≈ 49.9 µM)
[4]
  MIC: 25 µg/mL (≈ 99.9 µM)
[5]
  MIC: > 100 µg/mL
T. mentagrophytes TM-2
  MIC: 6.2 µg/mL (≈ 24.8 µM)
[6]
  MIC: > 100 µg/mL
[7]
  MIC: > 100 µg/mL
C. tropicalis NRRL Y1410
  MIC: 50 µg/mL (≈ 200 µM)
[8]
  MIC: 6.2 µg/mL (≈ 24.8 µM)
C. krusei VM 29B
  MIC: 25 µg/mL (≈ 99.9 µM)
[9]
  MIC: 6.2 µg/mL (≈ 24.8 µM)
[10]
  MIC: 50 µg/mL (≈ 200 µM)
[11]
  MIC: ≤ 100 µg/mL
[12]
  MIC: ≤ 100 µg/mL
